This note sets out measurements from US8076329B2, “Histamine H3-receptor ligands and their therapeutic applications” (Bioprojet, priority 2005, dated 2011).

The Ki is the equilibrium dissociation constant of an inhibitor or competing ligand from its target. Low values mean tighter binding, high ones weaker binding. Broadly, the IC50 is the concentration at which inhibition is half-maximal. What is called melting point is the temperature of the solid-liquid transition.

For data set [1], the target named is human histamine H3 receptors (Homo sapiens, UniProt Q9Y5N1). Briefly: H3 binding ([125I]iodoproxyfan displacement on membranes). The settings on record: compounds of the invention; membranes expressing human H3 receptors. The protocol:
Membranes expressing human histamine H3 receptors were incubated 1 hour at room temperature in binding buffer containing 50 mM Na2HPO4/KH2PO4 pH 7.5 in a final volume of 200 μl. […] The reaction was stopped by rapid filtration through GF/B filters (pre-soaked for 2 hours with 0.3% polyethyleneimine) followed by 3 ice cold binding buffer washes. The filter-bound radioactivity was measured in a liquid scintillation counter with 50 μl of scintillation fluid.

Another data set addresses CYP2D6 (Homo sapiens, UniProt P10635). The experiment in a line: Cytochrome inhibition, fluorometric microtiter plate assay. The data set is classed as in vitro ADME. Conditions: CYP2D6 cytochrome inhibition (IC50, concentrations in μM for 50% inhibition), human recombinant CYP2D6, substrate AMMC; compounds of the invention. The protocol:
(§1) The ability of drug in human to inhibit the catalytic activity of cytochrome P-450 isoforms was assayed using microtiter plate-based, fluorometric assays for the activities of the five human major CYP forms. Inhibition potential was determined in vitro after incubation of fluorescent model substrates over various incubation time with human recombinant cytochrome isoforms in the absence or in presence of increasing concentrations of test molecules (from 1 nM to 100 μM), in comparison with specific CYP isoform inhibitors.
(§2) Incubation of drug was carried out at 37° C.±0.5° C. under agitation in the presence of human recombinant cytochrome P-450 isoforms and a NADPH generating system. The incubation conditions for each cytochrome isoform were as follows: […]

The next data set has as its target CYP3A4 (Homo sapiens, UniProt P08684). Described as above. In kind it is in vitro ADME. Conditions: CYP3A4 cytochrome inhibition (IC50, concentrations in μM for 50% inhibition), human recombinant CYP3A4, substrate BFC; compounds of the invention. As to the method: as §1, §2

Chain of CYP3A4 (P08684 whole entry): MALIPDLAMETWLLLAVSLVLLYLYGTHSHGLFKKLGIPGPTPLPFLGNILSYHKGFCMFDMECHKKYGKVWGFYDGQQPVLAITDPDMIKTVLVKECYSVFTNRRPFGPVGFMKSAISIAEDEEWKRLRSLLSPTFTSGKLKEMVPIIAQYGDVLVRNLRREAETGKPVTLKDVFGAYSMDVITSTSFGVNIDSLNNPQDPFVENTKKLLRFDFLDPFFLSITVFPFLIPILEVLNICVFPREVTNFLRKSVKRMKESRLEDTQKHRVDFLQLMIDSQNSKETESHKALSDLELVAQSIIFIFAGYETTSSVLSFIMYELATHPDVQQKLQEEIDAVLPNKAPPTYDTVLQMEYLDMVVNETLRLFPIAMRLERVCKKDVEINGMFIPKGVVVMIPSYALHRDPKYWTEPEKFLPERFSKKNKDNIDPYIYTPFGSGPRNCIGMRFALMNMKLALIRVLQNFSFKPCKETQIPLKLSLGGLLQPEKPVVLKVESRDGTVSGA
Chain of CYP2D6 (P10635 whole entry, canonical isoform): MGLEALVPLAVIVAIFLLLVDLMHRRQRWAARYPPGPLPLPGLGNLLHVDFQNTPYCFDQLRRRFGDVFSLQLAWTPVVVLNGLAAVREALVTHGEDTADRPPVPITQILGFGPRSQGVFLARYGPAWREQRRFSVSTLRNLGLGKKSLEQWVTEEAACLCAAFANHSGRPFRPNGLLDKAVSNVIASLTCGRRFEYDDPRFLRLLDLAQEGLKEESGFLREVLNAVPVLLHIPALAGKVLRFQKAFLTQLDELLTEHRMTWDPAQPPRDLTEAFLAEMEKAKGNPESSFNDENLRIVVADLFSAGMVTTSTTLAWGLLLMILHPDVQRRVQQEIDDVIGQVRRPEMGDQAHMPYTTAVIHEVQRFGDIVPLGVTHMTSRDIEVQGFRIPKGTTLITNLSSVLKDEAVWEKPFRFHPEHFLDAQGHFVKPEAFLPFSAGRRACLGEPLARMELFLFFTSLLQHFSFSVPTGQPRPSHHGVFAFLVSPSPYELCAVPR
Chain of human histamine H3 receptors (Q9Y5N1 whole entry): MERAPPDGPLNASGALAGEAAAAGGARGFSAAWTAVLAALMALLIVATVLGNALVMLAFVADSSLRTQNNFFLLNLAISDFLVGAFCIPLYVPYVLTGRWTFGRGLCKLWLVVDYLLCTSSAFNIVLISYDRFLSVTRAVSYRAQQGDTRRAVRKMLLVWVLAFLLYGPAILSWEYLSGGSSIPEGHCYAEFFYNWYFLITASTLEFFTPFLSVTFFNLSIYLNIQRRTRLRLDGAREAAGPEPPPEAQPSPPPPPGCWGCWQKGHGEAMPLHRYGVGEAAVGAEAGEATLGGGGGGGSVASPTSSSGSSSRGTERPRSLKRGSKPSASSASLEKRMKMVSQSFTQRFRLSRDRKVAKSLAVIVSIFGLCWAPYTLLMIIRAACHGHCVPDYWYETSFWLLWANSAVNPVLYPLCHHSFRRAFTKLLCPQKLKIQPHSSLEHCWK

Take `Cc1ccc(-c2ccc(OCCCN3CCCCC3)cc2)cc1.O=C(O)C(=O)O` [Example 24, 1-{3-[(4′-methylbiphenyl-4-yl)oxy]propyl}piperidine]: the melting point worked out at 195 °C. The molecule also returned a Ki in data set [1] of 0.0035 µM. On CYP2D6, the IC50 is over 10 µM. Further, the IC50 on CYP3A4 is over 10 µM.

Turning to `C[C@H]1CCCN(CCCOc2ccc(-c3ccnc(O)c3)cc2)C1.O=C(O)C(=O)O` [Example 55, 2-hydroxy-4-(4-{3-[(3S)-3-methylpiperidin-1-yl]propoxy}phenyl)pyridine], the melting point came to 110 °C. Besides, the IC50 on CYP2D6 is over 10 µM. Further, at CYP3A4, the IC50 is over 10 µM.

As for `C[C@H]1CCCN(CCCOc2ccc(-c3ccnc(Cl)c3)cc2)C1.O=C(O)C(=O)O.O=C(O)C(=O)O` [Example 56, 2-chloro-4-(4-{3-[(3S)-3-methylpiperidin-1-yl]propoxy}phenyl)pyridine], the melting point was determined as 143 °C. In addition, the half-maximal inhibitory concentration (IC50) at CYP2D6 was over 10 µM. The IC50 at CYP3A4 was over 1 µM.

The molecule `C(#Cc1ccc(OCCCN2CCCCC2)cc1)CCN1CCCCC1.O=C(O)C(=O)O.O=C(O)C(=O)O` [Example 43, 1-{3-[4-(4-Piperidinobut-1-yn-1-yl)phenoxy]propyl}piperidine] gave a melting point of 167 °C. For the same molecule, the half-maximal inhibitory concentration (IC50) at CYP2D6 is over 1 µM. The IC50 at CYP3A4 was over 10 µM.

Molecule `c1cc(-c2ccc(OCCCN3CCCCC3)cc2)ccc1CN1CCCCC1` [Example 42, 1-(3-{[4′-(piperidinomethyl)biphenyl-4-yl]oxy}propyl)piperidine] gave a melting point of 90 °C. For the same molecule, the half-maximal inhibitory concentration (IC50) at CYP2D6 was over 10 µM. The IC50 on CYP3A4 was over 10 µM.

In turn, `c1cc(-c2ccc(OCCCN3CCCC3)cc2)ccc1OCCCN1CCCCC1` [Example 37, 1-(3-{[4′-(3-piperidinopropoxy)biphenyl-4-yl]oxy}propyl)pyrrolidine] came in with a melting point of 105 to 108 °C. In addition, the concentration for half-maximal inhibition (IC50) on CYP2D6 was over 10 µM. Also, at CYP3A4, the half-inhibitory concentration (IC50) was found to be 15 µM.
